Data taken from patent publication US20210138090A1, “uPAR targeting peptide for use in peroperative optical imaging of invasive cancer” (FLUOGUIDE A/S, priority 2014, published 2021).
Each block holds one molecule with its values, some of them ahead of it. Square brackets hold non-standard residues; d marks the D form. Primed or numbered codes have the meaning given here. Peptide text beside a SMILES is read from it. * marks the point of attachment. ξ: configuration not given here. X1 = CC1(C)C(/C=C/C=C/C=C/C=C2\N(CCCCCC(=O)*)c3ccc4ccccc4c3C2(C)C)=[N+](CCCCS(=O)(=O)[O-])c2ccc3ccccc3c21; Cha = N[C@@H](CC1CCCCC1)C(=O)O; IRDye800CW′ = not defined here; ξR = N=C(N)NCCCC(N)C(=O)O; ξF = NC(Cc1ccccc1)C(=O)O; ξE = NC(CCC(=O)O)C(=O)O; ξD = NC(CC(=O)O)C(=O)O; AEEA = NCCOCCOCC(=O)O; ξS = NC(CO)C(=O)O

Assays:
uPAR wt = uPAR wt (Homo sapiens, UniProt Q03405); experiment: SPR inhibition of uPAR binding to immobilized uPA
uPAR wt, sequence (Q03405 23-305 limits assumed): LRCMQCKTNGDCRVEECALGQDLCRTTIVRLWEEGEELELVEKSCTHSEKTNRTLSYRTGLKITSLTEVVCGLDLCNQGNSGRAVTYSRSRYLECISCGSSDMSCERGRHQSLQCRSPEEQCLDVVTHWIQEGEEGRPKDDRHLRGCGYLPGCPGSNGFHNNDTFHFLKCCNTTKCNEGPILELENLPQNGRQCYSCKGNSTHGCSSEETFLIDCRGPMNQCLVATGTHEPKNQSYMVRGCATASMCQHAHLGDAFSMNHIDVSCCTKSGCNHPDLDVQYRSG
Description: (§1) Covalent immobilization of purified human prouPA^S356A—was accomplished by injecting 12.5 μg/ml protein dissolved in 10 mM sodium acetate (pH 5.0) over a CM5 chip that had been pre-activated with NHS/EDC (N-ethyl-N′-[3-[…])propyl]-carbodiimide), aiming at a surface density of >5000 resonance units (RU) corresponding to 100 fmols/mm^2. After coupling the sensorchip was deactivated with 1 M ethanolamine. Binding of purified human uPAR as analyte was measured from 4 nM to 0.25 nM at 20° C. using 10 mM HEPES, 150 mM NaCl, 3 mM EDTA (pH 7.4) containing 0.05% (v/v) surfactant P20 as running buffer at a flow rate of 50 μl/min. In between cycles the sensorchip was regenerated by two consecutive 10-μl injections of 0.1 M acetic acid/HCl (pH 2.5) in 0.5 M NaCl. The inhibition of 3-fold dilutions of the compounds in question was measured for 4 nM uPAR with identical running conditions. All experiments were performed on a BiacoreT200 instrument.
(§2) For each inhibition peptide inhibition profile of uPAR binding to immobilized uPA there has been run a preceding standard curve and all calculations are based on the that standard curve.
(§3) Surface plasmon resonance (SPR) was applied to determine the […]-value of IRDye800-AE344 on the uPAR⋅uPA interaction in solution using a Biacore 3000 instrument essentially as described. In brief; pro-uPA^S356A, which is the natural ligand for uPAR. […] The analysis was carried out by measuring vobs of a fixed uPAR concentration (2 nM) incubated with a 3-fold dilution series of IRDye800-AE344 (ranging from 0.076 nM to 1.5 μM) for 300 sec at 20° C. with a flow rate of 50 μL/min. A standard curve was measured in parallel (2-fold dilution of uPAR covering 0.06 nM to 2 nM) including one repeated concentration point at the end to validate the biological integrity of the sensor chip. Running buffer contained 10 mM HEPES, 150 mM NaCl, 3 mM EDTA and 0.05% (v/v) surfactant P20, pH 7.4. The sensor chip was regenerated with two injections of 0.1 M acetic acid, 0.5 M NaCl. The parent nonamer peptide antagonist AE105 (Asp-Cha-Phe-D-Ser-D-Arg-Tyr-Leu-Trp-Ser-OH) was analyzed in parallel as positive control and the closed uPAR^H47C-N259C was used as negative control as its uPA binding cavity cannot accommodate AE105.

U87MG tumours [1] = experiment: optical imaging of U87MG tumour-bearing mice, IVIS Lumina XR; type: in vivo; details: 10 nmol i.v., 15 hr post injection; for max radiance for the tumors / tumor-to-background (TBR) ratio: IVIS Lumina XR; for tumor-to-background (TBR) ratio: n=10
Description: (§4) All animal experiments were performed under a protocol approved by the Animal Research Committee of the Danish Ministry of Justice. 5*10^6 U87MG cells were suspended in 200 μl PBS and inoculated on both flanks of the mouse. When the tumours reached an appropriate size the mice were imaged with AE105-Glu-Glu-ICG.
The mice were injected with 10 nmol of AE105-Glu-Glu-ICG or ICG i.v., and imaged 15 hr post injection. Before scan the mice were anaesthetized with 2% isofluran and positioned in a prone position. For imaging the IVIS Lumina XR and the acquisition software Living Image were used. The excitation filter was set to 710 nm and the emission filter was set in the ICG position. Acquisition was set to auto-settings to achieve the best acquisition as possible.
(§5) The TBR values were calculated by drawing a ROI over each tumor and place the background ROI in an area with constant background signal.

[2] = test system: orthotopic GBM (U-87 MG-luc2 cells); experiment: in vivo binding specificity in orthotopic GBM (blocking with AE120, scrambled probe); set-up: species or system mice; details: 3 nmol, 1 h, no blocking
Description: The target specificity to uPAR was evaluated by two different methods: competitive blocking with the uPAR targeting peptide AE120 ((DChaFsrYLWSG)2-βAK) and IRDye800 conjugated to a scrambled peptide, AE354 (IRDye800CW-Glu-Glu-NH—CH2—CH2—O—CH2—CH2—O—CH2—CO—NH—CH2—CH2—O—CH2—CH2—O—CH2—CO-Asp-Cha-Glu-(D)Ser-(D)Arg-Tyr-Leu-Glu-Ser-OH) with similar peptide length as the active peptide. The competitive blocking dose of 1.4-2.8 mg AE120 was injected intraperitoneally 15-30 min prior to intravenous injection of 3 nmol IRDye800CW-AE344 and imaged at 1 h (n=5). The scrambled peptide was administered at 3 nmol and the animals were imaged after 1 h (n=4).
Images were analyzed and processed in ImageJ 1.52a, NIH, USA. Signal measurements were performed on the raw images generated by the Fluoptics system. Tumor signal was measured as a mean fluorescence intensity of the whole tumor and background signal was measured as the mean of a representative area with no tumor on the contralateral hemisphere. Presented pictures are contrast enhanced in ImageJ with the Contrast Enhancement (Saturated pixels: 0.3%).

purified uPAR = purified uPAR (Homo sapiens, UniProt Q03405); experiment: binding affinity towards purified uPAR (first example)
purified uPAR, sequence (Q03405 23-305): as the sequence (Q03405 23-305 limits assumed) above

uPAR H47C-N259C = uPAR H47C-N259C (Homo sapiens, UniProt Q03405, H69C/N281C); experiment: SPR inhibition of uPAR binding to immobilized uPA, constrained uPAR variant (negative control); details: SPR, constrained uPAR variant, negative control; read-out: IC50 uPAR H47C-N259C
uPAR H47C-N259C, sequence (Q03405 23-305 H69C/N281C limits assumed): as the sequence (Q03405 23-305 limits assumed) above, with H47C, N259C counted along it
Description: as §1, §2
as §3, with “Running buffer contained 10 mM HEPES, 150 mM NaCl, 3 mM EDTA and 0.05% (v/v) surfactant P20, pH 7.4. The sensor chip was regenerated with two injections of 0.1 M acetic acid, 0.5 M NaCl.” left out

U87MG tumours [3] = experiment: optical imaging of U87MG tumour-bearing mice, Fluobeam camera; type: in vivo; details: 10 nmol i.v.
Description: as §4
After imaging with IVIS Lumina XR the mouse was moved to a Fluobeam setup and imaged with appropriate acquisition time.
as §5

[4] = comparison of fluorescence intensity of ICG and ICG-Glu-Glu-AE105; type: physicochemical; details: data not shown

IC50 (uPAR wt): 16.1 ± 0.9 nM
Molecule: CC(C)C[C@H](NC(=O)[C@H](Cc1ccc(O)cc1)NC(=O)[C@@H](CCCNC(=N)N)NC(=O)[C@@H](CO)NC(=O)[C@H](Cc1ccccc1)NC(=O)[C@H](CC1CCCCC1)NC(=O)[C@H](CC(=O)O)NC(=O)COCCOCCNC(=O)COCCOCCN)C(=O)N[C@@H](Cc1c[nH]c2ccccc12)C(=O)N[C@@H](CO)C(=O)O [AE346, O2Oc O2Oc Asp Cha Phe D-Ser D-Arg Tyr Leu Trp Ser-OH] (H-[AEEA][AEEA]D[Cha]F[dS][dR]YLWS-OH; N-terminus assumed)

Molecule: CC1(C)C(/C=C/C=C/C=C/C=C2\N(CCCCS(=O)(=O)O)c3ccc4ccccc4c3C2(C)C)=[N+](CCCCS(=O)(=O)[O-])c2ccc3ccccc3c21 [ICG, indocyanine green, reference compound]
uptake in the tumor (U87MG tumours [1]): No specific uptake | max radiance for the tumors (U87MG tumours [1]): 7.51E+06±3.13E+05 radiance efficiency | tumor-to-background (TBR) ratio (U87MG tumours [1]): 1.04±0.04

IC50 (uPAR wt): 31.8 ± 1.5 nM
Molecule: CC(C)C[C@H](NC(=O)[C@H](Cc1ccc(O)cc1)NC(=O)[C@@H](CCCNC(=N)N)NC(=O)[C@@H](CO)NC(=O)[C@H](Cc1ccccc1)NC(=O)[C@H](CC1CCCCC1)NC(=O)[C@H](CC(=O)O)NC(=O)COCCOCCNC(=O)COCCOCCNC(=O)[C@H](CCC(=O)O)NC(=O)[C@@H](N)CCC(=O)O)C(=O)N[C@@H](Cc1c[nH]c2ccccc12)C(=O)N[C@@H](CO)C(N)=O [AE345, Glu Glu O2Oc O2Oc Asp Cha Phe D-Ser D-Arg Tyr Leu Trp Ser-NH2] (H-EE[AEEA][AEEA]D[Cha]F[dS][dR]YLWS-NH2; N-terminus assumed)

Molecule: IRDye800CW-Glu-Glu-NH—CH2—CH2—O—CH2—CH2—O—CH2—CO—NH—CH2—CH2—O—CH2—CH2—O—CH2—CO-Asp-Cha-Glu-(D)Ser-(D)Arg-Tyr-Leu-Glu-Ser-OH ({IRDye800CW′}-EE[AEEA][AEEA]D[Cha]E[dS][dR]YLES-OH) [IRDye800CW-AE354, reference compound]
TBR [2]: 3.4 | normalized TBR (ref: active probe) [2]: 0.52

IC50 (uPAR wt): 3.5 ± 0.1 nM
Molecule: CC(C)C[C@H](NC(=O)[C@H](Cc1ccc(O)cc1)NC(=O)[C@@H](CCCNC(=N)N)NC(=O)[C@@H](CO)NC(=O)[C@H](Cc1ccccc1)NC(=O)[C@H](CC1CCCCC1)NC(=O)[C@H](CC(=O)O)NC(=O)COCCOCCNC(=O)[C@H](CCC(=O)O)NC(=O)[C@@H](N)CCC(=O)O)C(=O)N[C@@H](Cc1c[nH]c2ccccc12)C(=O)N[C@@H](CO)C(N)=O [AE347, Glu Glu O2Oc Asp Cha Phe D-Ser D-Arg Tyr Leu Trp Ser-NH2] (H-EE[AEEA]D[Cha]F[dS][dR]YLWS-NH2; N-terminus assumed)

IC50 (uPAR wt): 5.7 ± 0.5 nM
Molecule: CC(C)C[C@H](NC(=O)[C@H](Cc1ccc(O)cc1)NC(=O)[C@@H](CCCNC(=N)N)NC(=O)[C@@H](CO)NC(=O)[C@H](Cc1ccccc1)NC(=O)[C@H](CC1CCCCC1)NC(=O)[C@H](CC(=O)O)NC(=O)COCCOCCNC(=O)COCCOCCNC(=O)[C@H](CCC(=O)O)NC(=O)[C@@H](N)CCC(=O)O)C(=O)N[C@@H](Cc1c[nH]c2ccccc12)C(=O)N[C@@H](CO)C(=O)O [AE344, Glu Glu O2Oc O2Oc Asp Cha Phe D-Ser D-Arg Tyr Leu Trp Ser-OH] (H-EE[AEEA][AEEA]D[Cha]F[dS][dR]YLWS-OH; N-terminus assumed)

IC50 (purified uPAR): ~10 nM | IC50 (uPAR wt): 7.8 ± 1 nM | IC50 (uPAR H47C-N259C): 4500 ± 1500 nM
Molecule: CC(C)C[C@H](NC(=O)[C@H](Cc1ccc(O)cc1)NC(=O)[C@@H](CCCNC(=N)N)NC(=O)[C@@H](CO)NC(=O)[C@H](Cc1ccccc1)NC(=O)[C@H](CC1CCCCC1)NC(=O)[C@@H](N)CC(=O)O)C(=O)N[C@@H](Cc1c[nH]c2ccccc12)C(=O)N[C@@H](CO)C(=O)O [AE105, Asp-Cha-Phe-(D)Ser-(D)Arg-Tyr-Leu-Trp-Ser-OH, reference compound]

IC50 (uPAR wt): 12.5 ± 0.6 nM
Molecule: CC(C)C[C@H](NC(=O)[C@H](Cc1ccc(O)cc1)NC(=O)[C@@H](CCCNC(=N)N)NC(=O)[C@@H](CO)NC(=O)[C@H](Cc1ccccc1)NC(=O)[C@H](CC1CCCCC1)NC(=O)[C@H](CC(=O)O)NC(=O)[C@H](CCC(=O)O)NC(=O)[C@@H](N)CCC(=O)O)C(=O)N[C@@H](Cc1c[nH]c2ccccc12)C(=O)N[C@@H](CO)C(=O)O [AE349, Glu Glu Asp Cha Phe D-Ser D-Arg Tyr Leu Trp Ser-OH] (H-EED[Cha]F[dS][dR]YLWS-OH; N-terminus assumed)

IC50 (uPAR wt): 6.7 ± 0.2 nM
Molecule: CC(C)C[C@H](NC(=O)[C@H](Cc1ccc(O)cc1)NC(=O)[C@@H](CCCNC(=N)N)NC(=O)[C@@H](CO)NC(=O)[C@H](Cc1ccccc1)NC(=O)[C@H](CC1CCCCC1)NC(=O)[C@H](CC(=O)O)NC(=O)COCCOCCNC(=O)[C@@H](N)CCC(=O)O)C(=O)N[C@@H](Cc1c[nH]c2ccccc12)C(=O)N[C@@H](CO)C(N)=O [AE348, Glu O2Oc Asp Cha Phe D-Ser D-Arg Tyr Leu Trp Ser-NH2] (H-E[AEEA]D[Cha]F[dS][dR]YLWS-NH2; N-terminus assumed)

Molecule: CC(C)C[C@H](NC(=O)[C@H](Cc1ccc(O)cc1)NC(=O)C(CCCNC(=N)N)NC(=O)C(CO)NC(=O)C(Cc1ccccc1)NC(=O)[C@H](CC1CCCCC1)NC(=O)C(CC(=O)O)NC(=O)C(CCC(=O)O)NC(=O)C(CCC(=O)O)NC(=O)CCCCCN1\C(=C/C=C/C=C/C=C/C2=[N+](CCCCS(=O)(=O)[O-])c3ccc4ccccc4c3C2(C)C)C(C)(C)c2c1ccc1ccccc21)C(=O)N[C@@H](Cc1c[nH]c2ccccc12)C(=O)N[C@@H](CO)C(=O)O (stereo partly drawn) [ICG-Glu-Glu-AE105] (X1-[ξE][ξE][ξD][Cha][ξF][ξS][ξR]YLWS-OH)
IC50 (purified uPAR): ~80 nM | uptake in the tumor (U87MG tumours [1]): high uptake | max radiance for the tumors (U87MG tumours [1]): 3.43E+08±0.34E+08 radiance efficiency | tumor-to-background (TBR) ratio (U87MG tumours [1]): 3.52±0.167 | TBR (U87MG tumours [3]): 3.58±0.29 | decrease in fluorescence intensity for the conjugated probe compared with ICG [4]: 2 fold | IC50 (uPAR wt): 142 ± 13 nM | IC50 (uPAR H47C-N259C): 990 ± 50 nM
